The source of these data is BindingDB's records for doi:10.1016/0024-3205(84)90540-x (Schering-Plough, 1984).

pKi: −log10 of the molar value. Counter-ions that a name gives are not always drawn.

One assay addresses D(2) dopamine receptor (Rattus norvegicus, UniProt P61169).
The target in the next assay is D(1A) dopamine receptor (Rattus norvegicus, UniProt P18901).
D(1A) dopamine receptor, sequence (P18901 whole entry): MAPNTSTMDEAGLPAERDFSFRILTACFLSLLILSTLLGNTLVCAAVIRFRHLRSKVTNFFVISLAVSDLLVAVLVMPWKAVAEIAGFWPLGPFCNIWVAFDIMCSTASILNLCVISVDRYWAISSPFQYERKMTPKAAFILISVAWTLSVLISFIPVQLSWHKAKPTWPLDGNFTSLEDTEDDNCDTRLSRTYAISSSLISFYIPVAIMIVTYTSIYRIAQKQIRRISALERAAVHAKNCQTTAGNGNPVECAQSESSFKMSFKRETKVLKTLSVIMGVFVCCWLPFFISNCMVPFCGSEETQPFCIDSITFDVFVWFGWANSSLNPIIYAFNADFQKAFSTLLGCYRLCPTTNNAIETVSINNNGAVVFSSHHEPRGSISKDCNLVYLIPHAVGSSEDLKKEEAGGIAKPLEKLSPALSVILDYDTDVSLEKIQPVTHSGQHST

D(2) dopamine receptor, sequence (P61169 whole entry): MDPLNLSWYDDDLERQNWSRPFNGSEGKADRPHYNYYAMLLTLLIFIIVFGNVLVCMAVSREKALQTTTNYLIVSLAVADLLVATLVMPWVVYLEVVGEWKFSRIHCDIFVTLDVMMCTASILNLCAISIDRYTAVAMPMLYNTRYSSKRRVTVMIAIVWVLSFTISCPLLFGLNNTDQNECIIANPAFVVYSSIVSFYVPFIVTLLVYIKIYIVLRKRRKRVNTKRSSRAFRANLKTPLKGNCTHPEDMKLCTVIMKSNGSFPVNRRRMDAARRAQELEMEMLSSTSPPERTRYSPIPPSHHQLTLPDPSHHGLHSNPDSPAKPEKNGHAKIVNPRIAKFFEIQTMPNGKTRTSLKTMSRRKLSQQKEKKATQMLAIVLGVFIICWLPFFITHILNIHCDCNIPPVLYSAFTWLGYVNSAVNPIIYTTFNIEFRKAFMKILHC

The pKi is the Ki on a negative log10 scale, so that one unit is a factor of ten. Read a low pKi as a large Ki. `N[C@@H](CCC(=O)O)C(=O)O` [L-Glutamic acid]: the pKi at D(2) dopamine receptor and on D(1A) dopamine receptor was less than 5.00 each time.

`OCCC1CCN(CC/C=C2\c3ccc(F)cc3Sc3ccc(C(F)(F)F)cc32)CC1` [trans piflutixol-(E)]: the pKi at D(2) dopamine receptor was 7.14; on D(1A) dopamine receptor, 7.02.

In the case of `NCC(O)c1ccc(O)c(O)c1` (stereo not drawn) [Noradrenaline,(+)], the pKi at D(2) dopamine receptor and on D(1A) dopamine receptor was less than 5.00 in each case.

For the compound `NCCc1c[nH]cn1` [[3H]histamine], the pKi at D(2) dopamine receptor and at D(1A) dopamine receptor was less than 5.00 in each case. Regarding `CN1C2CC(OC(=O)C(CO)c3ccccc3)CC1C1OC12` (stereo unspecified) [3-hydroxy-2-phenyl-propionic acid 9-methyl-3-oxa-9-aza-tricyclo[3.3.1.0*2,4*]non-7-yl ester], the pKi at D(2) dopamine receptor and on D(1A) dopamine receptor was less than 5.00 in each case.

`OCCN1CCN(CCCN2c3ccccc3Sc3ccc(C(F)(F)F)cc32)CC1` [2-[4-[3-[2-(trifluoromethyl)phenothiazin-10-yl]propyl]piperazin-1-yl]ethanol;hydrochloride]: the pKi on D(1A) dopamine receptor was 7.95. Consider `O=C(c1ccc(F)cc1)C1CCN(CCn2c(=O)[nH]c3ccccc3c2=O)CC1` [3-(2-{4-[(4-fluorophenyl)carbonyl]piperidin-1-yl}ethyl)-1,2,3,4-tetrahydroquinazoline-2,4-dione], for which the pKi is 6.40 on D(2) dopamine receptor and 6.00 on D(1A) dopamine receptor.

As to `CC[C@@H](CO)NC(=O)[C@@H]1C=C2c3cccc4c3c(cn4C)C[C@H]2N(C)C1`, the pKi was 6.94 on D(2) dopamine receptor and 6.66 at D(1A) dopamine receptor.

For `OCCC1CCN(CCC=C2c3ccc(F)cc3Sc3ccc(C(F)(F)F)cc32)CC1` [CAS_60197-32-2], the pKi at D(2) dopamine receptor is 9.00; at D(1A) dopamine receptor, 8.54. On the same counts, the results for `OCCN1CCN(CCCN2c3ccccc3Sc3ccc(Cl)cc32)CC1` [4-[3-(2-chlorophenothiazin-10-yl)propyl]-1-piperazineethanol] are 8.89 and 7.52. For `NCCCC(=O)O` [4-amino-n-[2,3-3H]butyric acid] the same measures were less than 5.00 and less than 5.00.
